Laboratory results as given in US9951373B2, “Oplophorus-derived luciferases, novel coelenterazine substrates, and methods of use” (Promega Corporation, priority 2010, dated 2018).
Like-named read-outs stand apart in the source and are kept apart here.

What was measured:
[1] = Stability of coelenterazines in reporter reagent buffer (T90); settings: time for luminescent signal to decay by 10% at 22° C. in reporter reagent buffer; read with IV lysate
[2] = target: T1, OgLuc variant 9B8 (Oplophorus gracilirostris, UniProt Q9GV45, A31E/A60K/A81I/F95Y/I117V/L99Q/M102K/N193R/P142E/Q151K/Q38R/Q45L/V71I/Y165I); test: LOPAC library inhibition screen; assay type: biochemical; settings: preliminary LOPAC screen, 9B8, 20 μM substrate
T1 construct: The IV-based variants were generated in a pF4Ag vector background without HT7; made in house; host or cells: E. coli (crude lysate)
T1 sequence (Q9GV45 other isoform, or with tags, fused parts or gaps with the stated changes): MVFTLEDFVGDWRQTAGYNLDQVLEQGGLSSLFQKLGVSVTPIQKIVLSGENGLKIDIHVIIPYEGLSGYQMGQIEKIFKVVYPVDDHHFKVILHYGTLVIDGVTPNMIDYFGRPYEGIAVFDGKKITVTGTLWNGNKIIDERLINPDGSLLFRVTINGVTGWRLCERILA
Procedure: To determine the susceptibility of the OgLuc variants to off-target interactions, the activity of the 9B8 and L27V variants was screened against a LOPAC (library of pharmacologically active compounds) library. A LOPAC 1280 library (Sigma) was prepared by diluting the compounds to 1 mM in DMSO. On the day of the assay, the compounds were diluted to 20 μM in 1×PBS, and 10 μL transferred to a 96-well, white plate. To each well, 10 μL of purified 9B8, L27V or firefly luciferase (Luc2) enzyme diluted 10^−4 in Glo Lysis Buffer (Promega Corp.) was added and incubated at room temperature for 2 min. […] For assaying firefly luciferase, the BRIGHT-GLO™ Assay reagent (Promega Corp.) was used according to the manufacturer's protocol. As a negative control, 8 wells of each plate contained 1×PBS+2% glycerol. As a positive control, 8 wells of each plate contained 2 mM Suramin in 2% DMSO or 2 mM luciferase inhibitor 1 in 2% DMSO (Calbiochem).

[3] = target: T2, red click beetle luciferase and OgLuc variant 9B8 opt (Oplophorus gracilirostris, UniProt Q9GV45, A31E/A60K/A81I/F95Y/I117V/L99Q/M102K/N193R/P142E/Q151K/Q38R/Q45L/V71I/Y165I); test: Multiplexing with red click beetle luciferase, modified DUAL-GLO assay; assay type: biochemical; settings: 9B8 opt, STOP&GLO Reagent with 20 μM of the substrate
T2 construct: The IV-based variants were generated in a pF4Ag vector background without HT7; made in house; host or cells: E. coli (crude lysate, diluted 1000-fold)
T2 sequence (Q9GV45 other isoform, or with tags, fused parts or gaps with the stated changes): as above
Procedure: (§1) A. Lysates of E. coli expressing the variant 9B8 opt were prepared as previously described in Example 27 and diluted 1000-fold in DMEM without phenol red+0.1% PRIONEX®. Luminescence from a sample containing 6.3 μg/mL of purified red click beetle luciferase and E. coli lysate expressing the variant 9B8 opt was detected using a modified DUAL-GLO® Luciferase Assay System (Promega Corp.). DUAL-GLO® STOP&GLO® Reagent containing 20 μM coelenterazine-h and DUAL-GLO® STOP&GLO® Reagent containing 20 μM PBI 3939 were used, according to the manufacturer's protocol, to detect the red click beetle luciferase and OgLuc variant 9B8 luciferase from a single sample. Three replicates were performed.
(§2) Luminescence was detected on a Turner MODULUS™ luminometer. […] The standard deviation (“+/−”) and coefficient of variance (“CV”) are also shown. A “no coelenterazine” control was performed to illustrate the amount of quenching of the red click beetle signal by the DUAL-GLO® STOP&GLO® Reagent of the DUAL-GLO® Luciferase Assay System in the absence of coelenterazine. The “no coelenterazine” control yielded a 349-fold quench.

[4] = tested on: red click beetle luciferase and OgLuc variant 9B8 opt; test: as above; assay type: biochemical; settings: first step, red click beetle luciferase signal
Procedure: as §1, §2

[5] = tested on: HEK293 cells; test: Live cell luminescence with PBI-3939; assay type: cell-based, human; settings: cells in culture, 60 μM
Procedure: A. The use of OgLuc variants and PBI-3939 in live cells was examined HEK293 cells were plated in 96-well plates at 15,000 cells/well and grown overnight at 37° C. The following day, the cells were transiently transfected using TRANSIT®-LT1 in 3 replicates with 100 ng of hRL or 9B8 opt in pF4Ag and grown overnight at 37° C. The following day the growth media was removed and replaced with media containing 60 μM VIVIREN™ Live Cell Substrate (Promega Corp.), 60 μM ENDUREN™ Live Cell Substrate (Promega Corp.), or 60 μM PBI-3939 for both hRL and 9B8 opt transfected cells. Non-transfected cells were used as background control. The plate was incubated at 37° C. during the course of one day and periodically measured on a TECAN® GENIOS™ Pro luminometer, i.e., 11 times over the course of 24 hrs.

[6] = tested on: HEK293 cells

Compound	Stability (pH 8) (T90 in hrs) [1] [hrs]	Stability (pH 8) (T90 in hrs) [hrs]	also measured
O=c1c(Cc2ccccc2)nc2c(Cc3ccccc3)[nH]c(-c3ccccc3)cn1-2 [coelenterazine-hh, bisdeoxycoelenterazine, reference compound]	2.0		
O=c1c(Cc2cccs2)nc2c(Cc3ccccc3)[nH]c(-c3ccc(O)cc3)cn1-2 [PBI-4002]	3.5		
Cc1[nH]c(-c2ccccc2)cn2c(=O)c(Cc3ccc(O)cc3)nc1-2 [PBI-3896, 2-(4-hydroxybenzyl)-8-methyl-6-phenylimidazo[1,2-a]pyrazin-3(7H)-one]		2.8	
O=c1c(Cc2ccco2)nc2c(Cc3ccccc3)[nH]c(-c3ccc(O)cc3)cn1-2 [PBI-3945]	3.3		
Cc1ccc(C(=O)Nc2ccc(S(=O)(=O)O)c3cc(S(=O)(=O)O)cc(S(=O)(=O)O)c23)cc1NC(=O)c1cccc(NC(=O)Nc2cccc(C(=O)Nc3cc(C(=O)Nc4ccc(S(=O)(=O)O)c5cc(S(=O)(=O)O)cc(S(=O)(=O)O)c45)ccc3C)c2)c1 [Suramin]			inhibition of OgLuc [2]: inhibitor of OgLuc
O=c1c(Cc2ccco2)nc2c(Cc3ccccc3)[nH]c(-c3ccccc3)cn1-2 [PBI-3939, 8-benzyl-2-(furan-2-ylmethyl)-6-phenylimidazo[1,2-a]pyrazin-3(7H)-one]		4.1	Ogluc (average luminescence) [3]: 2,996,940; click beetle (average luminescence) [4]: 5,078,547; cell permeability [5]: can permeate cells in culture; biocompatibility in terms of cell viability [6]: comparable biocompatibility to native coelenterazine
coelenterazine-h [reference compound]	2.1		Ogluc (average luminescence) [3]: 921,440; click beetle (average luminescence) [4]: 5,082,100
Oc1ccc(Cc2nc3c(Cc4ccccc4)nc(-c4ccc(O)cc4)cn3c2O)cc1 [native coelenterazine, coelenterazine]		1.7	
O=c1c(Cc2cccs2)nc2c(Cc3ccccc3)[nH]c(-c3ccccc3)cn1-2 [PBI-3889, 8-benzyl-6-phenyl-2-(thiophen-2-ylmethyl)imidazo[1,2-a]pyrazin-3(7H)-one]		2.9	
